Test results: US9700541B2, “Seizure therapy” (Creighton University, priority 2012, dated 2017)
Entries after “also recorded” stand apart in the source; their conditions may differ.

System: acute mouse hippocampal slices
Assay: Extracellular recordings in CA3 stratum radiatum of acute hippocampal slices after complex I inhibition
Format: cell-based
Experimental: FIG. 5A depicts electrophysiological recordings showing inhibition of mitochondrial complex I of the electron transport chain creates a hyperexcitable environment in acute mouse hippocampal slices. Epilepsy is defined as a neuronal state of hyperexcitability and hypersynchrony. […] The middle trace is an expansion of field potential marked by an asterisk in the top trace. Time-frequency analysis was performed on the signals to examine the component frequencies occurring during the field potentials. High frequency oscillations (HF05) in the 100-200 Hz bandwidth (called ripples) are normal and reflect small clusters of neurons firing action potentials synchronously. […] Fast ripples occur in humans and animals with epilepsy and are biomarkers for seizure-genic foci.
In Kv1.1−/− hippocampal slices, pathological high frequency oscillations are prevalent throughout the in Kv1.1−/− hippocampal network. In addition, there is an increase in neurotransmitter release probabilities at specific hippocampal circuit synapses. To experimentally mimic the mitochondrial pathology seen in epilepsy, a drug that impairs mitochondrial function at respiratory complex I, rotenone, was applied to control tissue. […] Fast ripples occur in humans and animals with epilepsy and are biomarkers for seizure-genic foci.

Q: Which results are given for `C=C(C)[C@H]1Cc2c(ccc3c2O[C@@H]2COc4cc(OC)c(OC)cc4[C@@H]2C3=O)O1` [rotenone]?
A: promotion of seizures (acute application of rotenone to control tissue): sufficient to promote seizures; rate and amplitudes of spontaneous field potentials (rotenone 100 nM, 30 min application): increases; high frequency oscillations (fast ripples), spectral organization (rotenone application, control tissue): spectral disorganization and the generation of faster HFOs; also recorded: promotes spectral disorganization and the generation of pathologic high frequency oscillations; intensity of ripples and fast ripples (rotenone applied to slices): increases; seizure-like events following high potassium (8 mM) (rotenone-treated vs vehicle-treated slice): greater in amplitude and longer in duration
